Patent publication US7714023B2, “Treatment or prophylaxis of migraine or headache disorders using citalopram, escitalopram or citalopram metabolites” (priority 2004, dated 2010)
Several values for one entry are separate records, joined by “and”; a condition that tells them apart may be missing. Equal values may be shown once. Read-outs that look alike come from different tables or passages of the source.

Tests used:
NE transporter = molecular target: T1, NE transporter (Rattus norvegicus, UniProt Q63380); assay: NE transporter binding, rat cerebral cortex, [3H]nisoxetine; settings: Table 2, ten concentrations; read-out: Transporter and Muscarinic Receptor Binding IC50 NE
T1 construct: Rat cerebral cortex; from tissue; host or cells: rat cerebral cortex
T1 sequence (Q63380 1-617): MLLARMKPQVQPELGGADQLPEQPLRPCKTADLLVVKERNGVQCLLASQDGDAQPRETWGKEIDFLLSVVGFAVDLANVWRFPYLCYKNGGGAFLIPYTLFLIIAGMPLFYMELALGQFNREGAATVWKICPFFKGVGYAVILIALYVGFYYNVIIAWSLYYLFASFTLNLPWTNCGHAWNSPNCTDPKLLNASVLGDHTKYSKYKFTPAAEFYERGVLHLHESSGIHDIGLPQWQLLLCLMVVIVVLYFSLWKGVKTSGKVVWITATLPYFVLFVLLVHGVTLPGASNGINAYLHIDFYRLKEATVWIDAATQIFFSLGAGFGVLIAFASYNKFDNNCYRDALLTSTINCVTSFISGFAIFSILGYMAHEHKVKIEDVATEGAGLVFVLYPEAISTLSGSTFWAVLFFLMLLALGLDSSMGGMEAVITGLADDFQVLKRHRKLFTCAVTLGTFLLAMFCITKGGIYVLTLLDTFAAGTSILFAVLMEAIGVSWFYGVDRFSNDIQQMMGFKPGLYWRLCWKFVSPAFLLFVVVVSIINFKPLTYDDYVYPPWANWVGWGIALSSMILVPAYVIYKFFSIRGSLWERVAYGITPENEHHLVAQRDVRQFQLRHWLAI

NE uptake = assay: NE uptake, rat hypothalamus synaptosomes; format: biochemical
DA uptake = DA uptake into rat corpora striatum synaptosomes; format: biochemical
[1] = tested on: cytochrome P450 enzymes (P450 4A, P4502C19, P450 2D6, P4501A2, P450 2C9, P450 2E1); settings: in vitro; not by more than the stated degree; cited from earlier work
[2] = tested on: receptors for acetylcholine, histamine, norepinephrine, dopamine; monoamine oxidase; dopamine and norepinephrine reuptake sites; settings: Willets, 1999; cited from earlier work
DA transporter (h) = molecular target: T2, DA transporter (h) (Homo sapiens, UniProt Q01959); assay: DA transporter (h) binding, [3H]GBR12935
T2 construct: expressed in transfected cells; host or cells: CHO cells
T2 sequence (Q01959 whole entry): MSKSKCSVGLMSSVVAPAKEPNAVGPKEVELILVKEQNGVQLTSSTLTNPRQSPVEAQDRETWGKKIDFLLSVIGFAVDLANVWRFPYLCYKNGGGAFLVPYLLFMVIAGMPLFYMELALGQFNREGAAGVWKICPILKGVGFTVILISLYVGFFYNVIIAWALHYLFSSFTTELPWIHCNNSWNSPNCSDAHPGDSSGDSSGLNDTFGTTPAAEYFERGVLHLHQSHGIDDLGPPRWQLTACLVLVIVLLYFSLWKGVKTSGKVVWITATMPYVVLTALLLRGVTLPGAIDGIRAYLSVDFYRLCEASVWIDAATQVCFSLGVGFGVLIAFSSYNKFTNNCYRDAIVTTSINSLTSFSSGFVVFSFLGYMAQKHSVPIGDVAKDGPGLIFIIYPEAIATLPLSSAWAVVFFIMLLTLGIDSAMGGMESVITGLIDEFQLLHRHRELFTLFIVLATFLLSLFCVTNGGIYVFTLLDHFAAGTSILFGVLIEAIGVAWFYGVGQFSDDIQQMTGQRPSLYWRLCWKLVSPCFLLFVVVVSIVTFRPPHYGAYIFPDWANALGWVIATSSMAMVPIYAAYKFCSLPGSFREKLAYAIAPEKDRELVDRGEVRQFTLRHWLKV

NE transporter (h) = molecular target: T3, NE transporter (h) (Homo sapiens, UniProt P23975); assay: NE transporter (h) binding, [3H]nisoxetine
T3 construct: expressed in transfected cells; host or cells: MDCK cells
T3 sequence (P23975 whole entry): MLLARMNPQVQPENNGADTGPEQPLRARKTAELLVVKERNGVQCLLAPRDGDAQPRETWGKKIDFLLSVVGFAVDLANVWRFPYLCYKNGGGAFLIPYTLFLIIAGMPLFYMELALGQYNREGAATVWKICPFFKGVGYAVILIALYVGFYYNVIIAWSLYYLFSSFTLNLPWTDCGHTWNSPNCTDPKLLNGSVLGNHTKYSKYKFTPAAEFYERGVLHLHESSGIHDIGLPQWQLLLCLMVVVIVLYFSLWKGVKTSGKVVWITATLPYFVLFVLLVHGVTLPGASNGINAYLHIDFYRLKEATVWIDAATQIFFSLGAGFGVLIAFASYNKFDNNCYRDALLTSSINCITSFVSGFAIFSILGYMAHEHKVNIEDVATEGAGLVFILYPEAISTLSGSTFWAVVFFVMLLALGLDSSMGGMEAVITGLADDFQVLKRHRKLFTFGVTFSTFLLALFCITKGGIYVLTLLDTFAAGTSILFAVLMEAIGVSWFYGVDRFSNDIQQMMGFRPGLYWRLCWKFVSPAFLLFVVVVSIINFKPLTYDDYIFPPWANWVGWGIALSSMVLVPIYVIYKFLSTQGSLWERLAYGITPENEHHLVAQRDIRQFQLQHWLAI

5-HT uptake = 5-HT uptake into rat brain synaptosomes; format: biochemical
5-HT transporter (h) = molecular target: T4, 5-HT transporter (h) (Homo sapiens, UniProt P31645); format: binding
T4 construct: expressed in transfected cells; host or cells: HEK 293 cells
T4 sequence (P31645 whole entry): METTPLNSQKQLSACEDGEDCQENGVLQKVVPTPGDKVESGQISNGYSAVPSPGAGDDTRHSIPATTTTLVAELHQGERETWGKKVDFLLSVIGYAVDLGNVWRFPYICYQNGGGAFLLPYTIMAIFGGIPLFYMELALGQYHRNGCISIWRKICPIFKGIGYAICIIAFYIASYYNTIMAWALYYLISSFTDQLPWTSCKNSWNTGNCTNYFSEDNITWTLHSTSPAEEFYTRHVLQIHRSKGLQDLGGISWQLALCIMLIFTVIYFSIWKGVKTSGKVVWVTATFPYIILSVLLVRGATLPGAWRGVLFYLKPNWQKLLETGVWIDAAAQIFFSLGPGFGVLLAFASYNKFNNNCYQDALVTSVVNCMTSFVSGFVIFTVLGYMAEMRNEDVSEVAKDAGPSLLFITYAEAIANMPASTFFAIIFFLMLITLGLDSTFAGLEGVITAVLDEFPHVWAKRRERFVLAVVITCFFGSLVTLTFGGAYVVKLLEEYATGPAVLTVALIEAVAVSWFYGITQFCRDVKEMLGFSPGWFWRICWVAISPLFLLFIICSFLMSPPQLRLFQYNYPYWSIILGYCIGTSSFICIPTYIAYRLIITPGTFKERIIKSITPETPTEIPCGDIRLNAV

5-HT transporter = molecular target: T5, 5-HT transporter (Rattus norvegicus, UniProt P31652); assay: 5-HT transporter binding, rat cerebral cortex, [3H]paroxetine; settings: Table 2, ten concentrations; read-out: Transporter and Muscarinic Receptor Binding IC50 5-HT rat
T5 construct: Rat cerebral cortex; from tissue; host or cells: rat cerebral cortex
T5 sequence (P31652 whole entry): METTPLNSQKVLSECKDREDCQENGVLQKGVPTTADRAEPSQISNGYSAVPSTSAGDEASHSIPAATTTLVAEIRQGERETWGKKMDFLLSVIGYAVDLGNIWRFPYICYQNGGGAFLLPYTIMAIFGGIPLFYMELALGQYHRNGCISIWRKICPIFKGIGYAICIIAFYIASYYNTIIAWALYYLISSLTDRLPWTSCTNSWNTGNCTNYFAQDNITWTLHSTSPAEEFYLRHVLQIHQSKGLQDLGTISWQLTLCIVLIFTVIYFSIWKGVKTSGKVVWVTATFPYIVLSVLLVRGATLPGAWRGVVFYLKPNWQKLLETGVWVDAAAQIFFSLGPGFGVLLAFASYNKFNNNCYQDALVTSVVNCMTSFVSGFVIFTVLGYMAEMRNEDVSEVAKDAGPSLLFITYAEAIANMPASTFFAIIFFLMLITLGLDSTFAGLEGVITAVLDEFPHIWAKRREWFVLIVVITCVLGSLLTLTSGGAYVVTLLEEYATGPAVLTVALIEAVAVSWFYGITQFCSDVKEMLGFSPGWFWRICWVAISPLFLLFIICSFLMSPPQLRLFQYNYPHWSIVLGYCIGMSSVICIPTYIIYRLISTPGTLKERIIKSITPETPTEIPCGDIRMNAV

DA transporter = molecular target: T6, DA transporter (Rattus norvegicus, UniProt P23977); assay: DA transporter binding, rat striatum, [3H]GBR12935; settings: Table 2, ten concentrations; read-out: Transporter and Muscarinic Receptor Binding IC50 DA
T6 construct: Rat striatum; from tissue; host or cells: rat striatum
T6 sequence (P23977 whole entry): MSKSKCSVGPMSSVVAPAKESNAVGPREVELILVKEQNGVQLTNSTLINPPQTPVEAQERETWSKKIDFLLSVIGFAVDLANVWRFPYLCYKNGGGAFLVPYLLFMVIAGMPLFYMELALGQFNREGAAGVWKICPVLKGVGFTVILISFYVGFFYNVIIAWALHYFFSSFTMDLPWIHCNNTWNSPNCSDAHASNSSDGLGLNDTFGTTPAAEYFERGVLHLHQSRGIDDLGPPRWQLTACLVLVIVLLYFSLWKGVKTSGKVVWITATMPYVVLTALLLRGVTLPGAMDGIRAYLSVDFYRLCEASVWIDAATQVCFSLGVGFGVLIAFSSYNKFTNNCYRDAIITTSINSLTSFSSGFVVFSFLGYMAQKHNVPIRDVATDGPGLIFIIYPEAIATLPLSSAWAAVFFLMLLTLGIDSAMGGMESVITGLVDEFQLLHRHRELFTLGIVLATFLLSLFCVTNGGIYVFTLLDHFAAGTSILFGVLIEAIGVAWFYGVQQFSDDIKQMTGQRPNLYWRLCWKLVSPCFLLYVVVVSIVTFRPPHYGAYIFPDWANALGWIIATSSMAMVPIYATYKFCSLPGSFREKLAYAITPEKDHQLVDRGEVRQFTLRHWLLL

[3] = Table 3, rat brain synaptosomes, read-out: Monoamine Uptake IC50 NE
[4] = Table 3, rat brain synaptosomes, read-out: Monoamine Uptake IC50 DA
[5] = Table 1, rat brain synaptosomes, read-out: Functional Uptake IC50 NE
[6] = Table 1, rat brain synaptosomes, read-out: Functional Uptake IC50 DA
[7] = Table 1, racemic forms, duplicate, read-out: Transporter Binding IC50 DA
[8] = Table 1, racemic forms, duplicate, read-out: Transporter Binding IC50 NE
[9] = Table 1, rat brain synaptosomes, read-out: Functional Uptake IC50 5-HT
[10] = Table 3, human recombinant CHO cells, [3H]-GBR 12935, read-out: Human Transporter Binding IC50 DA
[11] = Table 3, human recombinant MDCK cells, [3H]-nisoxetine, read-out: Human Transporter Binding IC50 NE
[12] = Table 3, rat brain synaptosomes, read-out: Monoamine Uptake IC50 5-HT
[13] = Table 2, ten concentrations, read-out: Transporter and Muscarinic Receptor Binding IC50 5-HT human

In the case of `CN(C)CCCC1(c2ccc(F)cc2)OCc2cc(C#N)ccc21` (racemic) [Citalopram HBr (racemic), reference compound], the IC50 (NE transporter) is reported as 4.74 µM, the IC50 (NE uptake; [3]) is reported as 4.9 µM and the IC50 (DA uptake; [4]) is reported as 13 µM.
In the case of `CN(C)CCCC1(c2ccc(F)cc2)OCc2cc(C#N)ccc21` (racemic) [Racemic citalopram, (±)-1-(3-dimethylaminopropyl)-1-(4-fluorophenyl)-1,3-dihydroisobenzofuran-5-carbonitrile, reference compound], the “inhibition of the activity of cytochrome P450 enzymes” value [1] is given as “mild degree”, the “affinity for receptors for various neurotransmitters, enzymes and other reuptake sites” value [2] is given as “negligible affinity” and the IC50 (NE uptake; [5]) is given as 3.6 µM. For the same molecule, the IC50 (DA uptake; [6]) was 17 µM.
For `CNCCCC1(c2ccc(F)cc2)OCc2cc(C#N)ccc21` (racemic) [Racemic desmethylcitalopram], the “inhibition of the activity of cytochrome P450 enzymes” value [1] is listed as “mild degree”, the IC50 (DA transporter (h); [7]) is listed as 3.73 µM and the IC50 (NE transporter (h); [8]) is listed as 15.5 µM. The IC50 (NE uptake; [5]) was 1.2 µM, the IC50 (DA uptake; [6]) was 38 µM and the IC50 (5-HT uptake; [9]) was 0.013 µM.
In the case of `N#Cc1ccc2c(c1)COC2(CCCN)c1ccc(F)cc1` (racemic) [Racemic didesmethylcitalopram, 3-5-Cyano-1-(4-fluorophenyl)-1,3-dihydro-isobenzofuran-1-yl-propyl amine], the IC50 (5-HT transporter (h); Table 1, racemic forms, duplicate, read-out: Transporter Binding IC50 5-HT) is reported as 0.085 µM, the IC50 (DA transporter (h); [7]) is reported as 13.2 µM and the IC50 (NE transporter (h); [8]) is reported as 21.2 µM. The IC50 (NE uptake; [5]) was 1.6 µM, the IC50 (DA uptake; [6]) was 8.9 µM and the IC50 (5-HT uptake; [9]) was 0.038 µM.
`CNCCC[C@]1(c2ccc(F)cc2)OCc2cc(C#N)ccc21` [(R)(−)-Desmethylcitalopram] showed an IC50 (5-HT transporter) of 0.011 µM, an IC50 (DA transporter (h); [10]) of 37.6 µM and an IC50 (NE transporter (h); [11]) of 0.815 µM. It also gave an IC50 (DA transporter) of 58 µM, an IC50 (NE transporter) of 0.92 µM and an IC50 (NE uptake; [3]) of 1.7 µM. The IC50 (DA uptake; [4]) was 9.4 µM and the IC50 (5-HT uptake; [12]) was 0.11 µM.
With `N#Cc1ccc2c(c1)CO[C@]2(CCCN)c1ccc(F)cc1` [(R)(−)-Didesmethylcitalopram] the IC50 (5-HT transporter) was 0.027 µM, the IC50 (5-HT transporter (h); [13]) was 0.014 µM and the IC50 (DA transporter (h); [10]) was 38.9 µM. The IC50 (NE transporter (h); [11]) was 5.52 µM, the IC50 (DA transporter) was 14.1 µM and the IC50 (NE transporter) was 3.62 µM. The IC50 (NE uptake; [3]) was 1.3 µM, the IC50 (DA uptake; [4]) was 27 µM and the IC50 (5-HT uptake; [12]) was 0.13 µM.
For `CNCCC[C@@]1(c2ccc(F)cc2)OCc2cc(C#N)ccc21` [(S)(+)-Desmethylcitalopram], the IC50 (5-HT transporter) was 0.0013 µM, the IC50 (DA transporter (h); [10]) was 27.7 µM and the IC50 (NE transporter (h); [11]) was 10.3 µM. It also gave an IC50 (DA transporter) of 79.5 µM, an IC50 (NE transporter) of 11.5 µM and an IC50 (NE uptake; [3]) of 4.1 µM. The IC50 (DA uptake; [4]) was 7.6 µM and the IC50 (5-HT uptake; [12]) was 0.0058 µM.
For `N#Cc1ccc2c(c1)CO[C@@]2(CCCN)c1ccc(F)cc1` [(S)(+)-Didesmethylcitalopram], the IC50 (5-HT transporter) was 0.019 µM, the “fold higher affinity than its antipode, human 5-HT transporter” value (5-HT transporter (h)) was 16 fold and the IC50 (5-HT transporter (h); [13]) was 0.219 µM. The IC50 (DA transporter (h); [10]) was 54.7 µM, the IC50 (NE transporter (h); [11]) was 24.2 µM and the IC50 (DA transporter) was 71.1 µM. It also gave an IC50 (NE transporter) of 20.1 µM, an IC50 (NE uptake; [3]) of 3.3 µM and an IC50 (DA uptake; [4]) of 11 µM. The IC50 (5-HT uptake; [12]) was 0.18 µM.
For `CNCCCC1c2ccccc2C=Cc2ccccc21` [Protriptyline, reference compound], the IC50 (DA transporter (h); [7]) was 0.0067 µM and 0.015 µM, the IC50 (NE uptake; [3]) was 0.0023 µM and the IC50 (DA uptake; [6]) was 0.001 µM.
